Holding throughout (type): cell-based
One test addresses RARβ (Mus musculus (Mouse), UniProt P22605). Put plainly: Transactivation assay for RARβ (gal4-RAR fusion, pFR-luc reporter, COS-7 cells), Table 2. Conditions: COS-7 reporter, mean of three or more determinations, species not stated (method: mouse or human). The procedure:
(§1) Transcriptional transactivation assays were performed with gal4 fusion receptor constructs, created using each of the RAR ligand binding domains of either mouse or human, co-transfected with the pFR-luc (Stratagene) reporter construct in COS-7 cells.
(§2) Briefly, on day 1, 96 well plates were seeded with 8000 cells per well then left to recover overnight. On day 2, the cells were co-transfected with 100 ng of reporter plasmid and 10 ng of the appropriate receptor plasmid per well using lipofectamine (Invitrogen). On day 3, the lipofectamine containing media was replaced by a DMEM without phenol red, followed by the addition of test compound dissolved in 1 μL of DMSO to each well's 100 μL total volume. Finally, on day 4, the cells were lysed and their luciferase substrate was provided by the BrightGlo™ reagent (Promega), the plates were then read on the MicroBeta TriLux™ (Perkin Elmer).
(§3) Data for test compounds are quoted as EC50 values. Where replicate data has been generated, the data are quoted as the mean EC50 from the separate experiments.
(§4) EC50's values are reported as mean values of three or more determinations.

The target of a further test is RARα (Mus musculus (Mouse), UniProt P11416). Nature of the test: Transactivation assay for RARα (gal4-RAR fusion, pFR-luc reporter, COS-7 cells), Table 2. Conditions: for RARα/RARβ ratio: fold-selectivity for RARβ over RARα, >1 = selective for RARβ. The procedure:
as §1, §2, §3, §4

For the next test, the target named is RARγ (Mus musculus (Mouse), UniProt P18911). Put plainly: Transactivation assay for RARγ (gal4-RAR fusion, pFR-luc reporter, COS-7 cells), Table 2. Particulars: for RARγ/RARβ ratio: fold-selectivity for RARβ over RARγ, >1 = selective for RARβ. The procedure:
as §1, §2, §3, §4

Setting [1] is: Table 2, COS-7 reporter, mean of three or more determinations, inactive = no agonist action at highest concentration tested.

Sequence of RARβ (P22605 210-444): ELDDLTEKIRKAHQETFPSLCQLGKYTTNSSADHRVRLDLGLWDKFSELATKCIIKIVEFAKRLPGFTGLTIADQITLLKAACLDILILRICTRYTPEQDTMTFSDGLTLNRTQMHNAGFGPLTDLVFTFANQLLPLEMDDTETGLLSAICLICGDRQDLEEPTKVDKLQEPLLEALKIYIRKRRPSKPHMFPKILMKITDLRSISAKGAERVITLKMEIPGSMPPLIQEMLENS
Sequence of RARα (P11416 183-417): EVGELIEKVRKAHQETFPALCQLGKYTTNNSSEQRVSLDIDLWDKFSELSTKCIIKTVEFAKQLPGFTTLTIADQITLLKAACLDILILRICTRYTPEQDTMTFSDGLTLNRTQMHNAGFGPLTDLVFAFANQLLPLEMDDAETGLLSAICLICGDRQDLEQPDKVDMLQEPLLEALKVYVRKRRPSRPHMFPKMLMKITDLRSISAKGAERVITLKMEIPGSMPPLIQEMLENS
Sequence of RARγ (P18911 185-419): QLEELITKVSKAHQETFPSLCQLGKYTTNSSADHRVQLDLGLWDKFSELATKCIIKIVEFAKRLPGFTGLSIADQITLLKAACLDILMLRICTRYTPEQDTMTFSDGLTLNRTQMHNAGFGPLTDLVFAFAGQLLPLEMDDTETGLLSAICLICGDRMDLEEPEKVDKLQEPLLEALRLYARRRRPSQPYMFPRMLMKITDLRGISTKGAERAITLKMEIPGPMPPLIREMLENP

Take `Cc1cc(-c2noc(-c3nc4c(C)ccc(C)c4o3)n2)ccc1C(=O)O` [BHBA-025, 4-(5-(4,7-Dimethylbenzo[d]oxazol-2-yl)-1,2,4-oxadiazol-3-yl)-2-methylbenzoic acid]: the values for the EC50 on RARβ, on RARα (setting [1]) and at RARγ (setting [1]) were 41 nM, 150 nM and 140 nM, respectively.
For `Cc1ccc(Cl)c2oc(-c3nc(-c4ccc(C(=O)O)cc4)no3)cc12` [BHBA-015, 4-(5-(7-Chloro-4-methylbenzofuran-2-yl)-1,2,4-oxadiazol-3-yl)benzoic acid], in that order: 2.9 nM, 23 nM and 12 nM.
On to `Cc1ccc(C)c2oc(-c3nnc(-c4ccc(C(=O)O)c(F)c4)o3)cc12` [BHBA-037, 4-(5-(4,7-Dimethylbenzofuran-2-yl)-1,3,4-oxadiazol-2-yl)-2-fluorobenzoic acid], for which the EC50 (usually the concentration giving half of the maximal effect) on RARβ stood at 45 nM; on RARα (setting [1]) it was 91 nM; on RARγ (setting [1]), 60 nM. Further, the RARα/RARβ ratio at RARα amounted to 2. The RARγ/RARβ ratio at RARγ worked out at 1.3.
As to `Cc1ccc(Cl)c2cc(-c3nc(-c4ccc(C(=O)O)cc4)no3)oc12` [BHBA-016, 4-(5-(4-Chloro-7-methylbenzofuran-2-yl)-1,2,4-oxadiazol-3-yl)benzoic acid], the 50% effective concentration (EC50) at RARβ was 2.7 nM; at RARα (setting [1]), 18 nM; at RARγ (setting [1]), 6 nM. The RARα/RARβ ratio on RARα is 7. The RARγ/RARβ ratio on RARγ was 2.
Regarding `Cc1ccc(C)c2oc(-c3nc(-c4ccc(C(=O)O)cc4Br)no3)cc12` [BHBA-003, 3-Bromo-4-(5-(4,7-dimethylbenzofuran-2-yl)-1,2,4-oxadiazol-3-yl)benzoic acid], the results for the concentration for a half-maximal effect (EC50) on RARβ, at RARα (setting [1]) and on RARγ (setting [1]) were 16 nM, 160 nM and 36 nM, respectively. The RARα/RARβ ratio on RARα was 10. On RARγ, the RARγ/RARβ ratio was 2.
In the case of `Cc1cc(-c2noc(-c3cc4c(Cl)ccc(Cl)c4o3)n2)ccc1C(=O)O` [BHBA-013, 2-Methyl-4-(5-(4,7-dichlorobenzofuran-2-yl)-1,2,4-oxadiazol-3-yl)benzoic acid], the 50% effective concentration (EC50) on RARβ turned out to be 16 nM; on RARα (setting [1]) it was 140 nM; at RARγ (setting [1]) it was 110 nM.
As for `Cc1ccc(C)c2oc(-c3nc(-c4ccc(C(=O)O)c(F)c4)ns3)cc12` [BHBA-041, 4-(5-(4,7-Dimethylbenzofuran-2-yl)-1,2,4-thiadiazol-3-yl)-2-fluorobenzoic acid], the half-maximal effective concentration (EC50) was 4.3 nM at RARβ, 20 nM at RARα (setting [1]) and 4.7 nM on RARγ (setting [1]). The RARα/RARβ ratio on RARα worked out at 4.6. At RARγ, the RARγ/RARβ ratio came out at 1.0.
Consider `Cc1cc(C(=O)O)ccc1-c1nc(-c2cc3c(C)ccc(C)c3o2)no1` [BHBA-029, 4-(3-(4,7-Dimethylbenzofuran-2-yl)-1,2,4-oxadiazol-5-yl)-3-methylbenzoic acid], for which the EC50 on RARβ came to 14 nM; at RARα (setting [1]), 210 nM; on RARγ (setting [1]) it was 19 nM. For the same molecule, the RARα/RARβ ratio on RARα was 15. Also, the RARγ/RARβ ratio at RARγ worked out at 1.3.
As to `Cc1cc(C(=O)O)ccc1-c1nnc(-c2cc3c(C)ccc(C)c3o2)o1` [BHBA-035, 4-(5-(4,7-Dimethylbenzofuran-2-yl)-1,3,4-oxadiazol-2-yl)-3-methylbenzoic acid], the EC50 at RARβ came out at 67 nM; on RARα (setting [1]), 91 nM; at RARγ (setting [1]), 83 nM. Besides, the RARα/RARβ ratio on RARα was determined as 1.3. Moreover, the RARγ/RARβ ratio on RARγ is given as 1.2.
On to `Cc1cc(-c2nc(-c3cc4c(C)ccc(C)c4o3)no2)ccc1C(=O)O` [BHBA-032, 4-(3-(4,7-Dimethylbenzofuran-2-yl)-1,2,4-oxadiazol-5-yl)-2-methylbenzoic acid], for which the values for the 50% effective concentration (EC50) on RARβ, at RARα (setting [1]) and on RARγ (setting [1]) were 8.1 nM, 150 nM and 22 nM, respectively. For the same molecule, the RARα/RARβ ratio at RARα amounted to 18.5. Also, the RARγ/RARβ ratio on RARγ was determined as 2.7.
As for `Cc1cc(-c2nc(-c3cc4c(C)ccc(C)c4o3)ns2)ccc1C(=O)O` [BHBA-043, 4-(3-(4,7-Dimethylbenzofuran-2-yl)-1,2,4-thiadiazol-5-yl)-2-methylbenzoic acid], the concentration for a half-maximal effect (EC50) at RARβ is 5.2 nM; on RARα (setting [1]) it was 44 nM; on RARγ (setting [1]), 25 nM.
As to `Cc1ccc(Cl)c2oc(-c3nc(-c4ccc(C(=O)O)cc4Cl)no3)cc12` [BHBA-017, 3-Chloro-4-(5-(7-chloro-4-methylbenzofuran-2-yl)-1,2,4-oxadiazol-3-yl)benzoic acid], the EC50 on RARβ was 7.4 nM; on RARα (setting [1]) it was 56 nM; at RARγ (setting [1]) it was 18 nM. The RARα/RARβ ratio on RARα was found to be 8. In addition, the RARγ/RARβ ratio at RARγ was determined as 2.4.
For the molecule `Cc1ccc(C)c2oc(-c3nc(-c4ccc(C(=O)O)cc4)ns3)cc12` [BHBA-038, 4-(5-(4,7-Dimethylbenzofuran-2-yl)-1,2,4-thiadiazol-3-yl)benzoic acid], the figures for the EC50 on RARβ, on RARα (setting [1]) and on RARγ (setting [1]) were 5.1 nM, 19 nM and 6.1 nM, respectively. In addition, the RARα/RARβ ratio on RARα amounted to 3.7. At RARγ, the RARγ/RARβ ratio turned out to be 1.2.
For `O=C(O)c1ccc(-c2noc(-c3cc4c(C(F)(F)F)ccc(F)c4o3)n2)c(Cl)c1` [BHBA-020, 3-Chloro-4-(5-(7-fluoro-4-(trifluoromethyl)benzofuran-2-yl)-1,2,4-oxadiazol-3-yl)benzoic acid], the 50% effective concentration (EC50) amounted to 8 nM on RARβ, 60 nM at RARα (setting [1]) and 23 nM on RARγ (setting [1]).
On to `Cc1ccc(C)c2oc(-c3nc(-c4ccc(C(=O)O)cc4C(F)(F)F)no3)cc12` [BHBA-004, 4-(5-(4,7-Dimethylbenzofuran-2-yl)-1,2,4-oxadiazol-3-yl)-3-(trifluoromethyl)benzoic acid], for which the EC50 at RARβ came to 10 nM. On RARα (setting [1]), the “RARα EC50” value is “inactive”. The “RARγ EC50” value at RARγ (setting [1]) is “inactive”.
Turning to `Cc1ccc(C)c2sc(-c3nc(-c4ccc(C(=O)O)cc4Cl)no3)cc12` [BHBA-022, 3-Chloro-4-(5-(4,7-dimethylbenzo[b]thiophen-2-yl)-1,2,4-oxadiazol-3-yl)benzoic acid], the EC50 on RARβ worked out at 16 nM; on RARα (setting [1]), 77 nM; on RARγ (setting [1]), 18 nM. Besides, at RARα, the RARα/RARβ ratio amounted to 5. For the same molecule, the RARγ/RARβ ratio at RARγ is on record as 1.1.
On RARγ (setting [1]), `Cc1ccc(C)c2oc(-c3nc(-c4ccc(C(=O)O)cc4)no3)nc12` [BHBA-023, 4-(5-(4,7-Dimethylbenzo[d]oxazol-2-yl)-1,2,4-oxadiazol-3-yl)benzoic acid] gave an EC50 of 83 nM.
For the molecule `O=C(O)c1ccc(-c2noc(-c3cc4c(Cl)ccc(Cl)c4o3)n2)cc1F` [BHBA-014, 2-Fluoro-4-(5-(4,7-dichlorobenzofuran-2-yl)-1,2,4-oxadiazol-3-yl)benzoic acid], the EC50 at RARβ was 2 nM; on RARα (setting [1]), 12 nM; on RARγ (setting [1]), 11 nM.
For `Cc1cc(-c2noc(-c3cc4c(C)ccc(C)c4o3)n2)ccc1C(=O)O` [BHBA-006, 2-Methyl-4-(5-(4,7-dimethylbenzofuran-2-yl)-1,2,4-oxadiazol-3-yl)benzoic acid], the EC50 at RARβ amounted to 14 nM; on RARα (setting [1]) it was 89 nM; at RARγ (setting [1]) it was 25 nM. Also, the RARα/RARβ ratio at RARα worked out at 6. Further, the RARγ/RARβ ratio at RARγ is recorded as 2.
Take `Cc1ccc(C)c2oc(-c3nc(-c4ccc(C(=O)O)c(F)c4)no3)nc12` [BHBA-026, 4-(5-(4,7-Dimethylbenzo[d]oxazol-2-yl)-1,2,4-oxadiazol-3-yl)-2-fluorobenzoic acid]: the EC50 amounted to 13 nM at RARβ, 47 nM at RARα (setting [1]) and 77 nM at RARγ (setting [1]).
For the molecule `Cc1ccc(C)c2oc(-c3noc(-c4ccc(C(=O)O)cc4)n3)cc12` [BHBA-028, 4-(3-(4,7-Dimethylbenzofuran-2-yl)-1,2,4-oxadiazol-5-yl)benzoic acid], the results for the EC50 on RARβ, on RARα (setting [1]) and at RARγ (setting [1]) were 8.2 nM, 26 nM and 8.3 nM, respectively. Also, on RARα, the RARα/RARβ ratio is 3. Further, the RARγ/RARβ ratio at RARγ was 1.
In the case of `Cc1ccc(C)c2sc(-c3nc(-c4ccc(C(=O)O)cc4)no3)cc12` [BHBA-021, 4-(5-(4,7-Dimethylbenzo[b]thiophen-2-yl)-1,2,4-oxadiazol-3-yl)benzoic acid], the figures for the EC50 on RARβ, on RARα (setting [1]) and at RARγ (setting [1]) were 3.4 nM, 30 nM and 6.3 nM, respectively. For the same molecule, the RARα/RARβ ratio on RARα turned out to be 9. In addition, the RARγ/RARβ ratio at RARγ is listed as 2.
`Cc1ccc(Cl)c2cc(-c3nc(-c4ccc(C(=O)O)cc4Cl)no3)oc12` [BHBA-018, 3-Chloro-4-(5-(4-chloro-7-methylbenzofuran-2-yl)-1,2,4-oxadiazol-3-yl)benzoic acid]: the EC50 was found to be 41 nM on RARβ, 150 nM at RARα (setting [1]) and 140 nM on RARγ (setting [1]).
On to `Cc1ccc(C)c2oc(-c3noc(-c4ccc(C(=O)O)cc4Cl)n3)cc12` [BHBA-031, 3-Chloro-4-(3-(4,7-dimethylbenzofuran-2-yl)-1,2,4-oxadiazol-5-yl)benzoic acid], for which the EC50 on RARβ was 17 nM; on RARα (setting [1]), 150 nM; on RARγ (setting [1]) it was 42 nM. Moreover, the RARα/RARβ ratio at RARα is reported as 8.8. Moreover, the RARγ/RARβ ratio at RARγ came out at 2.5.
